Reference: patent US20210085244A1, “WRIST RIGIDITY ASSESSMENT DEVICE AND METHOD FOR IDENTIFYING A CLINICALLY EFFECTIVE DOSE” (INESC TEC- INSTITUTO DE ENGENHARIA DE SISTEMAS …, priority 2015, published 2021)

System: Parkinson's Disease (PD) patients
Experiment: Levodopa level medication test: UPDRS rigidity score and wrist rigidity index by wearable angular velocity sensor
Format: in vivo
Details: for UPDRS: motor classification for Rigidity & Rest Tremor (0 to 4); for Rigidity label (Avg): average, higher values = lower rigidity; for Rigidity label: higher index values correspond to lower perceived wrist rigidity
Description: FIG. 6: angular velocity data of a wrist rigidity assessment recorded using a device according to an embodiment of the present disclosure for a first subject for a period of time (a) without levodopa and (b) with a clinically effective dosage regime of levodopa. Also pictured are values of a rigidity index (label) calculated according to the present disclosure. Higher index values correspond to lower perceived wrist rigidity. FIG. 7: angular velocity data of a wrist rigidity assessment recorded using a device according to an embodiment of the present disclosure for a second subject for a period of time (a) without levodopa and (b) with a clinically effective dosage regime of levodopa. Also pictured are values of a rigidity index (label) calculated according to the present disclosure. Higher index values correspond to lower perceived wrist rigidity. Levodopa is an amino acid precursor of dopamine with antiparkinsonian properties. Levodopa is a prodrug that is converted to dopamine by DOPA decarboxylase and can cross the blood-brain barrier. Two patients (person and person) were subjected to a Levodopa level medication test where an experienced neurologist evaluates the subjective Unified PD Rating Scale (UPDRS) motor semi-quantitative classification for Rigidity & Rest Tremor (0 to 4) for a baseline (no levodopa) and in steps of increasing levodopa dosages until a UPDRS of 0 is achieved. This is the dosage as prescribed to the patient. At this dosage, wrist rigidity was evaluated as presently disclosed. As described above, higher index values correspond to lower perceived wrist rigidities. See also FIG. 6-7. A threshold of a rigidity measure according to the present disclosure, for example of 70% or 80%, can thus be used to objectively identify a clinically effective dosage regime. Furthermore, a threshold of a rigidity measure according to the present disclosure can also be used to identify a clinically effective dosage regime which also minimizes the risk of side effects.

With `N[C@@H](Cc1ccc(O)c(O)c1)C(=O)O` [Levodopa] the UPDRS (Subject 1, with clinically effective dosage of levodopa, baseline without levodopa 3) was 0, the “Rigidity label (Avg)” value (Subject 1, with levodopa, baseline without levodopa 46.9) was 74.3% and the Rigidity label (Subject 1, with levodopa, baseline without levodopa 40-50) was 70-80%. For the same compound, the UPDRS (Subject 2, with clinically effective dosage of levodopa, baseline without levodopa 2) was 0, the “Rigidity label (Avg)” value (Subject 2, with levodopa, baseline without levodopa 48.6) was 84.9% and the Rigidity label (Subject 2, with levodopa, baseline without levodopa 50) was 80-90%.
